Results published in patent US20240317727A1 (Duke University, priority 2018, published 2024).

target: T1, recombinant HSF1 DNA-binding domain (DBD) (Homo sapiens, UniProt Q00613); test: Differential Scanning Fluorimetry (DSF), HSF1 DBD melting temperature; details: Table 1; 5 μM HSF1 DBD, 25PM Compound; positive = stabilizes, negative = destabilizes HSF1
T1 sequence (Q00613 15-120): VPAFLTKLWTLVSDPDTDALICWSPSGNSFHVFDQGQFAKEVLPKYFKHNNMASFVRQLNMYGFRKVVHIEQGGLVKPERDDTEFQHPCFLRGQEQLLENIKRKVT

ΔTm at 25 µM [°C]	SMILES	ΔTm
2.61	O=C(Nc1ccc(Cl)cc1)Nc1ccc(Cl)c([N+](=O)[O-])c1 [Compound 0048, 1-(4-chloro-3-nitrophenyl)-3-(4-chlorophenyl)urea]	
3.11	O=C(Nc1ccc(Cl)cc1)Nc1cccc([N+](=O)[O-])c1 [Compound 0049, 1-(4-chlorophenyl)-3-(3-nitrophenyl)urea]	
	O=C(Nc1cccc(Cl)c1)O/N=C/c1ccc(F)cc1 [Compound 0051]	−6.91
-11	CC(NC(=O)CSc1nnc(-c2ccccc2O)n1-c1ccccc1)c1ccccc1 (stereo not drawn) [Compound 0052]	
-10.1	N=C(N)NC(=O)c1nc(Cl)c(N)nc1N [Compound 0053]	
-9.69	CCOC(=O)c1cc(C#N)c(Sc2nnc(SC)s2)nc1C(F)(F)F [Compound 0055]	
-10.5	O=C(CSc1nnc(-c2ccccc2)n1-c1ccc(F)cc1)NCc1ccccc1 [Compound 0057]	
2.5	O=C(Nc1ccc(F)cc1)Nc1cccc(Cl)c1 [Compound 0060, 1-(3-chlorophenyl)-3-(4-fluorophenyl)urea]	
2.94	O=C(Nc1cccc(Cl)c1)Nc1ccc(Cl)c([N+](=O)[O-])c1 [Compound 0061, 1-(4-chloro-3-nitrophenyl)-3-(3-chlorophenyl)urea]	
2.5	Cc1cccc(NC(=O)Nc2cccc(Cl)c2)c1 [Compound 0063, 1-(3-chlorophenyl)-3-(m-tolyl)urea]	
4.44	CSc1sc(NC(=O)Nc2cccc(C(F)(F)F)c2)cc1C#N [Compound 0065]	
3	O=C(Nc1ccc(Cl)cc1)Nc1cccc(Cl)c1 [Compound 0066, 1-(3-chlorophenyl)-3-(4-chlorophenyl)urea]	
4	Cc1cccc(NC(=O)Nc2cccc([N+](=O)[O-])c2)c1 [Compound 0067, 1-(3-nitrophenyl)-3-(m-tolyl)urea]	
2.75	Cc1ccc(NC(=O)Nc2cccc(Cl)c2)cc1 [Compound 0068, 1-(3-chlorophenyl)-3-(p-tolyl)urea]	
8.06	O=C(N/N=C/c1ccc(Br)s1)c1[nH]cc2ccccc12 [Compound 0069]	
-7.24	COc1cc(C(=O)Oc2c(Cl)cc(Cl)cc2/C=N\c2cccc(C(F)(F)F)c2)cc(OC)c1OC [Compound 0070]	
-6.24	Cc1ccc(C(=O)/C=C(\c2ccccc2)N2CCCCC2)cc1 [Compound 0071]	
2.6	CC(C)(C)CC(C)(C)c1ccc(O)c(Cc2ccc(Cl)cc2Cl)c1 [Compound 0073]	

ΔTm at 25 µM [°C]	SMILES	ΔTm
2.61	O=C(Nc1cc(Cl)cc(Cl)c1)Nc1cc(-c2cccs2)n[nH]1 [Compound 0074]	
2.61	Cc1ccc(NC(=O)Nc2ccc(Br)c(C(F)(F)F)c2)cc1 [Compound 0075, 1-(4-bromo-3-(trifluoromethyl)phenyl)-3-(p-tolyl)urea]	
-7.23	O=C(Nc1ccc(F)cc1)Nc1cccc([N+](=O)[O-])c1 [Compound 0076, 1-(4-fluorophenyl)-3-(3-nitrophenyl)urea]	
2.25	O=C(Nc1cccc(Cl)c1)Nc1cccc([N+](=O)[O-])c1 [Compound 0078, 1-(3-chlorophenyl)-3-(3-nitrophenyl)urea]	
2.25	O=C(Nc1ccc(Cl)c([N+](=O)[O-])c1)Nc1ccc(F)cc1C1(C(F)(F)F)N=N1 [Compound 0079, 1-(4-chloro-3-nitro-phenyl)-3-[4-fluoro-2-[3-(trifluoromethyl)diazirin-3-yl]phenyl]urea]	
1.6	O=[N+]([O-])c1cc(NC2=NS(=O)(=O)N=C2Nc2ccc(F)cc2)ccc1Cl [Compound 0080, N3-(4-chloro-3-nitro-phenyl)-N4-(4-fluorophenyl)-1,1-dioxo-1,2,5-thiadiazole-3,4-diamine]	
-3.6	c1ccc(-c2ccc(C(c3ccccc3)n3ccnc3)cc2)cc1 (stereo not drawn) [Compound 0081]	
3.9	Cc1ccc(/C=N/NC(=O)c2c[nH]c3ccccc23)s1 [Compound 0082]	
2	N#Cc1cc(NC(=O)Nc2ccc(F)cc2)ccc1Cl [Compound 0083, 1-(4-chloro-3-cyano-phenyl)-3-(4-fluorophenyl) urea]	
-8.96	CC(C)(C)c1ccc(-c2nnc(SCC(=O)NCc3ccccc3)n2-c2ccccc2)cc1 [Compound 0084]	
3.26	O=C(Nc1ccccc1)Nc1ccc(OC(F)(F)F)cc1 [Compound 0085]	
-11.5	O=C(O)C1=CC(=C(c2ccc(O)c(C(=O)O)c2)c2ccc(O)c(C(=O)O)c2)C=CC1=O [Compound 0086]	
-9.24	CCOc1ccc(S(=O)(=O)NCc2ccccn2)c2ccccc12 [Compound 0087]	
-3.02	COc1cc2cc(N(C)CCCNC(=O)C3CCCO3)cc(N)c2cc1OC (stereo not drawn) [Compound 0088]	
-5.73	COc1ccc(CSc2ccc([N+](=O)[O-])c3nonc23)cc1 [Compound 0089]	
0.67	O=C(Nc1ccc(F)cc1)Nc1ccc(Cl)nc1 [Compound 0090, 1-(6-chloro-3-pyridyl)-3-(4-fluorophenyl) urea]	
2.5	O=C(Nc1ccccc1)Nc1cccc(Cl)c1 [Compound 0091, 1-(3-chlorophenyl)-3-phenylurea]	
2.33	O=c1c(Nc2ccc(F)c(F)c2)c(Nc2ccc(Cl)c(C(F)(F)F)c2)c1=O [Compound 0092, 3-[4-chloro-3-(trifluoromethyl)anilino]-4-(3,4-difluoroanilino)cyclobut-3-ene-1,2-dione]	

SMILES	ΔTm at 25 µM [°C]	ΔTm
CCC(C(=O)C(C)C(O)C(C)CCc1ccc(C)c(O)c1C(=O)O)C1OC(CC)(C2CCC(O)(CC)C(C)O2)CC1C (stereo not drawn) [Compound 0056]	-5.96	
Cc1ccc(NC(=O)Nc2cccc(C(F)(F)F)c2)cc1 [Compound 0058, 1-(p-tolyl)-3-(3-(trifluoromethyl)phenyl)urea]	2.58	
O=[N+]([O-])c1cc(C(F)(F)F)cc([N+](=O)[O-])c1Oc1ccc(C2SCCS2)cc1 [Compound 0062]	-6.9	
CCOC(=O)CCc1ccc(Oc2c([N+](=O)[O-])cc(C(F)(F)F)cc2[N+](=O)[O-])cc1 [Compound 0072]	3.39	
O=[N+]([O-])c1cc(C(F)(F)F)cc([N+](=O)[O-])c1Oc1ccc(I)cc1 [Compound 0077]	2.5	

same assay, conditions: Table 3; 5 μM HSF1 DBD, 25PM Compound; positive = stabilizes, negative = destabilizes HSF1

ΔTm at 25 µM [°C]	SMILES
0.75	N#CN=C(Nc1ccc(F)cc1)Nc1ccc(Cl)c([N+](=O)[O-])c1 [Compound 047, 1-(4-chloro-3-nitro-phenyl)-2-cyano-3-(4-fluorophenyl)guanidine]
2.61	O=C(Nc1ccc(Cl)cc1)Nc1ccc(Cl)c([N+](=O)[O-])c1 [Compound 048, 1-(4-chloro-3-nitrophenyl)-3-(4-chlorophenyl)urea]
3.11	O=C(Nc1ccc(Cl)cc1)Nc1cccc([N+](=O)[O-])c1 [Compound 049, 1-(4-chlorophenyl)-3-(3-nitrophenyl)urea]
2.9	O=C(Nc1ccc(F)cc1)Nc1ccc(Cl)c(S(=O)(=O)C(F)(F)F)c1 [Compound 054, 1-[4-chloro-3-(trifluoromethylsulfonyl)phenyl]-3-(4-fluorophenyl)urea]
2.5	O=C(Nc1ccc(F)cc1)Nc1cccc(Cl)c1 [Compound 060, 1-(3-chlorophenyl)-3-(4-fluorophenyl)urea]
2.94	O=C(Nc1cccc(Cl)c1)Nc1ccc(Cl)c([N+](=O)[O-])c1 [Compound 061, 1-(4-chloro-3-nitrophenyl)-3-(3-chlorophenyl)urea]
2.3	O=c1c(Nc2ccc(F)cc2)c(Nc2ccc(Cl)c(C(F)(F)F)c2)c1=O [Compound 064, 3-[4-chloro-3-(trifluoromethyl)anilino]-4-(4-fluoroanilino)cyclobut-3-ene-1,2-dione]
3	O=C(Nc1ccc(Cl)cc1)Nc1cccc(Cl)c1 [Compound 066, 1-(3-chlorophenyl)-3-(4-chlorophenyl)urea]
4	Cc1cccc(NC(=O)Nc2cccc([N+](=O)[O-])c2)c1 [Compound 067, 1-(3-nitrophenyl)-3-(m-tolyl)urea]
2.75	Cc1ccc(NC(=O)Nc2cccc(Cl)c2)cc1 [Compound 068, 1-(3-chlorophenyl)-3-(p-tolyl)urea]
2.61	Cc1ccc(NC(=O)Nc2ccc(Br)c(C(F)(F)F)c2)cc1 [Compound 075, 1-(4-bromo-3-(trifluoromethyl)phenyl)-3-(p-tolyl)urea]
2.61	O=C(Nc1ccc(F)cc1)Nc1cccc([N+](=O)[O-])c1 [Compound 076, 1-(4-fluorophenyl)-3-(3-nitrophenyl)urea]
2.5	O=C(Nc1cccc(Cl)c1)Nc1cccc([N+](=O)[O-])c1 [Compound 078, 1-(3-chlorophenyl)-3-(3-nitrophenyl)urea]
2.25	O=C(Nc1ccc(Cl)c([N+](=O)[O-])c1)Nc1ccc(F)cc1C1(C(F)(F)F)N=N1 [Compound 079, 1-(4-chloro-3-nitro-phenyl)-3-[4-fluoro-2-[3-(trifluoromethyl)diazirin-3-yl]phenyl]urea]
1.6	O=[N+]([O-])c1cc(NC2=NS(=O)(=O)N=C2Nc2ccc(F)cc2)ccc1Cl [Compound 080, N3-(4-chloro-3-nitro-phenyl)-N4-(4-fluorophenyl)-1,1-dioxo-1,2,5-thiadiazole-3,4-diamine]
2	N#Cc1cc(NC(=O)Nc2ccc(F)cc2)ccc1Cl [Compound 083, 1-(4-chloro-3-cyano-phenyl)-3-(4-fluorophenyl) urea]
0.67	O=C(Nc1ccc(F)cc1)Nc1ccc(Cl)nc1 [Compound 090, 1-(6-chloro-3-pyridyl)-3-(4-fluorophenyl) urea]
2.5	O=C(Nc1ccccc1)Nc1cccc(Cl)c1 [Compound 091, 1-(3-chlorophenyl)-3-phenylurea]

SMILES	ΔTm at 25 µM [°C]
Cc1ccc(NC(=O)Nc2cccc(C(F)(F)F)c2)cc1 [Compound 058, 1-(p-tolyl)-3-(3-(trifluoromethyl)phenyl)urea]	2.58
